Data published in US20090270413A1, “DI-T-BUTYLPHENYL PIPERAZINES AS CALCIUM CHANNEL BLOCKERS” (priority 2008, published 2009).

What was measured:
Format in all cases: cell-based
[1] = biological target: T1, Human Cav2.2 channels (Homo sapiens, UniProt Q00975); assay: Block of Cav2.2 (N-type) channels expressed in HEK293 cells; conditions: for inhibition at 10 µM / inhibition at 30 µM: HEK293; for inhibition at 10 µM: read-out: Cav 2.2 % Inh @ 10 μM; for inhibition at 30 µM: read-out: Cav 2.2 % Inh @ 30 μM; for IC50: read-out: Cav 2.2 IC50
T1 construct: expressed in transfected cells
Text: Human Cav2.2 channels were stably expressed in HEK293 cells along with alpha2-delta and beta subunits of voltage-gated calcium channels. An inwardly rectifying potassium channel (Kir2.3) was also expressed in these cells to allow more precise control of the cell membrane potential by extracellular potassium concentration. At low bath potassium concentration, the membrane potential is relatively negative, and is depolarized as the bath potassium concentration is raised. In this way, the bath potassium concentration can be used to regulate the voltage-dependent conformations of the channels. Compounds are incubated with cells in the presence of low (4 mM) potassium or elevated (12, 25 or 30 mM) potassium to determine the affinity for compound block of resting (closed) channels at 4 mM potassium or affinity for block of open and inactivated channels at 12, 25 or 30 mM potassium. After the incubation period, Cav2.2 channel opening is triggered by addition of higher concentration of potassium (70 mM final concentration) to further depolarize the cell. The degree of state-dependent block can be estimated from the inhibitory potency of compounds after incubation in different potassium concentrations.
Calcium influx through Cav2.2 channels is determined using a calcium sensitive fluorescent dye in combination with a fluorescent plate reader. Fluorescent changes were measured with either a VIPR (Aurora Instruments) or FLIPR (Molecular Devices) plate reader.
Protocol • 1. Seed cells in Poly-D-Lysine Coated 96 or 384-well plate and keep in a 37° C.-10% CO2 incubator overnight • 2. Remove media, wash cells with 0.2 mL (96-well plate) or 0.05 mL (384-well plate) Dulbecco's Phosphate Buffered Saline (D-PBS) with calcium & magnesium (Invitrogen; 14040) • 3. Add 0.1 mL (96-well plate) or 0.05 mL (384-well plate) of 4 μM fluor-4 (Molecular Probes; F-14202) and 0.02% Pluronic acid (Molecular Probes; P-3000) prepared in D-PBS with calcium & magnesium (Invitrogen; 14040) supplemented with 10 mM Glucose & 10 mM Hepes/NaOH; pH 7.4 • 4. Incubate in the dark at 25° C. for 60-70 min • 5. Remove dye, wash cells with 0.1 mL (96-well plate) or 0.06 mL (384-well plate) of 4, 12, 25, or 30 mM Potassium Pre-polarization Buffer (PPB) • 6. Add 0.1 mL (96-well plate) or 0.03 mL (384-well plate) of 4, 12, 25, 30 mM PPB with or without test compound • 7. Incubate in the dark at 25° C. for 30 min • 8. Read cell plate on VIPR instrument, Excitation=480 nm, Emission=535 nm • 9. With VIPR continuously reading, add 0.1 mL (96-well plate) or 0.03 mL (384-well plate) of Depolarization Buffer (DB), which is 2× the final assay concentration, to the cell plate.
Block of N-type calcium channels is evaluated utilizing the IonWorks HT 384 well automated patch clamp electrophysiology device. This instrument allows synchronous recording from 384 well (48 at a time). A single whole cell recording is made in each well. Whole cell recording is established by perfusion of the internal compartment with amphotericin B.
The voltage protocol is designed to detect use-dependent block. A 2 Hz train of depolarizations (twenty 25 ms steps to +20 mV). The experimental sequence consists of a control train (pre-compound), incubation of cells with compound for 5 minutes, followed by a second train (post-compound). Use dependent block by compounds is estimated by comparing fractional block of the first pulse in the train to block of the 20th pulse.
Parallel patch clamp electrophysiology is performed using IonWorks HT (Molecular Devices Corp) essentially as described by Kiss and colleagues (Kiss et al. 2003; Assay and Drug Development Technologies, 1:127-135). Briefly, a stable HEK 293 cell line (referred to as CBK) expressing the N-type calcium channel subunits (α1B, α2δ, β3a) and an inwardly rectifying potassium channel (Kir2.3) is used to record barium current through the N-type calcium channel. Cells are grown in T75 culture plates to 60-90% confluence before use. […]

[2] = biological target: T2, Cav3.1 (T-type channel alpha-1G) (Homo sapiens, UniProt O43497); assay: T-type calcium channel voltage-clamp assay, Cav3.1; conditions: read-out: Cav 3.1 IC50
T2 construct: expressed in transfected cells; host or cells: HEK 293
Protocol: (§1) The T-type calcium channel blocking activity of the compounds of this invention may be readily determined using the methodology well known in the art described by Xia, et al., Assay and Drug Development Tech., 1 (5), 637-645 (2003).
(§2) In a typical experiment ion channel function from HEK 293 cells expressing the T-type channel alpha-1G, H, or I (CaV 3.1, 3.2, 3.3) is recorded to determine the activity of compounds in blocking the calcium current mediated by the T-type channel alpha-1G, H, or I (CaV 3.1, 3.2, 3.3). In this T-type calcium (Ca^2+) antagonist voltage-clamp assay calcium currents are elicited from the resting state of the human alpha-1G, H, or I (CaV 3.1, 3.2, 3.3) calcium channel as follows. Sequence information for T-type (Low-voltage activated) calcium channels are fully disclosed in e.g., U.S. Pat. No. 5,618,720, U.S. Pat. No. 5,686,241, U.S. Pat. No. 5,710,250,U.S. Pat. No. 5,726,035, U.S. Pat. No. 5,792,846, U.S. Pat. No. 5,846,757, U.S. Pat. No. 5,851,824, U.S. Pat. No. 5,874,236, U.S. Pat. No. 5,876,958, U.S. Pat. No. 6,013,474, U.S. Pat. No. 6,057,114, U.S. Pat. No. 6,096,514, WO 99/28342, and J. Neuroscience, 19 (6):1912-1921 (1999). Cells expressing the t-type channels were grown in H3D5 growth media which is comprised DMEM, 6% bovine calf serum (HYCLONE), 30 micromolar Verapamil, 200 microgram/ml Hygromycin B, 1× Penicillin/Streptomycin. Glass pipettes are pulled to a tip diameter of 1-2 micrometer on a pipette puller. The pipettes are filled with the intracellular solution and a chloridized silver wire is inserted along its length, which is then connected to the headstage of the voltage-clamp amplifier. Trypsinization buffer was 0.05% Trypsin, 0.53 mM EDTA. The extracellular recording solution consists of (mM): 130 mM NaCl, 4 mM KCl, 1 mM MgCl2, 2 mM CaCl2, 10 mM HEPES, 30 Glucose, pH 7.4. The internal solution consists of (mM): 135 mM CsMeSO4, 1 MgCl2, 10 CsCl, 5 EGTA, 10 HEPES, pH 7.4, or 135 mM CsCl, 2 MgCl2, 3 MgATP, 2 Na2ATP, 1 Na2GTP, 5 EGTA, 10 HEPES, pH 7.4. Upon insertion of the pipette tip into the bath, the series resistance is noted (acceptable range is between 1-4 megaohm). The junction potential between the pipette and bath solutions is zeroed on the amplifier. The cell is then patched, the patch broken, and, after compensation for series resistance (>=80%), the voltage protocol is applied while recording the whole cell Ca2+ current response. Voltage protocols: (1) −80 mV holding potential every 20 seconds pulse to −20 mV for 40 msec duration; the effectiveness of the drug in inhibiting the current mediated by the channel is measured directly from measuring the reduction in peak current amplitude initiated by the voltage shift from −80 mV to −20 mV; (2). −100 mV holding potential every 15 seconds pulse to −20 mV for 40 msec duration; the effectiveness of the drug in inhibiting the current mediated by the channel is measured directly from measuring the reduction in peak current amplitude initiated by the shift in potential from −100 mV to […]. The difference in block at the two holding potentials was used to determine the effect of drug at differing levels of inactivation induced by the level of resting state potential of the cells. After obtaining control baseline calcium currents, extracellular solutions containing increasing concentrations of a test compound are washed on. Once steady state inhibition at a given compound concentration is reached, a higher concentration of compound is applied. % inhibition of the peak inward control Ca2+ current during the depolarizing step to −20 mV is plotted as a function of compound concentration.

[3] = biological target: T3, Cav3.2 (T-type channel alpha-1H) (Homo sapiens, UniProt O95180); assay: T-type calcium channel voltage-clamp assay, Cav3.2; conditions: read-out: Cav 3.2 IC50
T3 construct: expressed in transfected cells; host or cells: HEK 293
Protocol: as §1, §2

T3 sequence (O95180 whole entry): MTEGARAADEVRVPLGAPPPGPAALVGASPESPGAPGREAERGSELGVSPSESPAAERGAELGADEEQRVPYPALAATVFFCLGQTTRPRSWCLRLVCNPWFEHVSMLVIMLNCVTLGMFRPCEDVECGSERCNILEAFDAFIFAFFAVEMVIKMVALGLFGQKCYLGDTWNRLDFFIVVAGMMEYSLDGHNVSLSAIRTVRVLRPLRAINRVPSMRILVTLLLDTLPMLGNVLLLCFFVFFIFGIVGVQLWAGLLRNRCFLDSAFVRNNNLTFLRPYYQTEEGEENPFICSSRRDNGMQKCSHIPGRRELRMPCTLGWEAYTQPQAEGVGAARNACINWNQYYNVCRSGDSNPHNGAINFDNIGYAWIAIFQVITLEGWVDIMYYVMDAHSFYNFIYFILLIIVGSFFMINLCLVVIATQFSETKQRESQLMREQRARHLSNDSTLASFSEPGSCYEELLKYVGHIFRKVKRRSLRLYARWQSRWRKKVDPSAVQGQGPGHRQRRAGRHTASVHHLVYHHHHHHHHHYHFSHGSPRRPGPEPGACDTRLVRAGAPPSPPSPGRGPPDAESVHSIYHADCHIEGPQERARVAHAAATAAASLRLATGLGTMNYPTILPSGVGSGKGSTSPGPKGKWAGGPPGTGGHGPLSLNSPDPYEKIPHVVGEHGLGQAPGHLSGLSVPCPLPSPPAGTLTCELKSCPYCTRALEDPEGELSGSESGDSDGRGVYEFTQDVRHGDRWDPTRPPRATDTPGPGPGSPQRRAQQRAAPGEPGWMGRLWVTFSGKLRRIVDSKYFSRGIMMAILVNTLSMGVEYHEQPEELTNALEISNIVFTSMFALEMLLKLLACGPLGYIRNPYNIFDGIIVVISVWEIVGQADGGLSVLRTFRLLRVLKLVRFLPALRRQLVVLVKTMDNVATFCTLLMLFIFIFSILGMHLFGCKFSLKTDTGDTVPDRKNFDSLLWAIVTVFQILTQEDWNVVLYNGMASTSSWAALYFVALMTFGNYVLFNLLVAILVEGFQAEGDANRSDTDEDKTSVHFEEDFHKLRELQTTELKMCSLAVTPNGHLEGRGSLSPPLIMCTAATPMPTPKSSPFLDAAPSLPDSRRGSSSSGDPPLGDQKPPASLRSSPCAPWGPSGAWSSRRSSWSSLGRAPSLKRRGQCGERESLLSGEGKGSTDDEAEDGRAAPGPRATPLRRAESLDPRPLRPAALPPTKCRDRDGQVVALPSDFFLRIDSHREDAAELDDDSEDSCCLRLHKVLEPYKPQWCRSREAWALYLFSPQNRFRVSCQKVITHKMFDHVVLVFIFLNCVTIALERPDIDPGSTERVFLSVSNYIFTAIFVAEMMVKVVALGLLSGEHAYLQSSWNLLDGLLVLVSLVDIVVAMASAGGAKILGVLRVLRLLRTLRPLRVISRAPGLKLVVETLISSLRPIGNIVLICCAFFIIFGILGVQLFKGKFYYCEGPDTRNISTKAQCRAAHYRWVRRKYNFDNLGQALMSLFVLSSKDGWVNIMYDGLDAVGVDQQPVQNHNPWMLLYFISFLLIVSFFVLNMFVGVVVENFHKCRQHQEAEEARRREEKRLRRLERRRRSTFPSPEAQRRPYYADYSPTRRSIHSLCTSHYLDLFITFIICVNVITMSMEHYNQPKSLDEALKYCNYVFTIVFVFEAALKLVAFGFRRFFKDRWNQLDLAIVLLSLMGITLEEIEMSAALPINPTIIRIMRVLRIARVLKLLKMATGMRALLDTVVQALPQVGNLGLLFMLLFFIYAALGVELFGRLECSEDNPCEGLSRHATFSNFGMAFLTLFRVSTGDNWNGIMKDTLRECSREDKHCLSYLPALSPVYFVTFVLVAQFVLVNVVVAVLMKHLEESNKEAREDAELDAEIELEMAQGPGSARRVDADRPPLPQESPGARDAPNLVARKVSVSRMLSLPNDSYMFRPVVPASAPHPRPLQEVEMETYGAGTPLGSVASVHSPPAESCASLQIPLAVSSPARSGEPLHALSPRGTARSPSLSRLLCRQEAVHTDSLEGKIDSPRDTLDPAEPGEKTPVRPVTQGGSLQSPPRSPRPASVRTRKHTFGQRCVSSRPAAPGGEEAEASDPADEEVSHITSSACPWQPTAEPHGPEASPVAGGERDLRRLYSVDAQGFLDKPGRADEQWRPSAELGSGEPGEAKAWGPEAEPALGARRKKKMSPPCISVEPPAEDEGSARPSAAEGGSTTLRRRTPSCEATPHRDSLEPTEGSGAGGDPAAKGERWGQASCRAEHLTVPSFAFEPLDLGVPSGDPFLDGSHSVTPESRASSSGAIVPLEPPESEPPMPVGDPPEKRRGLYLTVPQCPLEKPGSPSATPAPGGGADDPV
T2 sequence (O43497 whole entry): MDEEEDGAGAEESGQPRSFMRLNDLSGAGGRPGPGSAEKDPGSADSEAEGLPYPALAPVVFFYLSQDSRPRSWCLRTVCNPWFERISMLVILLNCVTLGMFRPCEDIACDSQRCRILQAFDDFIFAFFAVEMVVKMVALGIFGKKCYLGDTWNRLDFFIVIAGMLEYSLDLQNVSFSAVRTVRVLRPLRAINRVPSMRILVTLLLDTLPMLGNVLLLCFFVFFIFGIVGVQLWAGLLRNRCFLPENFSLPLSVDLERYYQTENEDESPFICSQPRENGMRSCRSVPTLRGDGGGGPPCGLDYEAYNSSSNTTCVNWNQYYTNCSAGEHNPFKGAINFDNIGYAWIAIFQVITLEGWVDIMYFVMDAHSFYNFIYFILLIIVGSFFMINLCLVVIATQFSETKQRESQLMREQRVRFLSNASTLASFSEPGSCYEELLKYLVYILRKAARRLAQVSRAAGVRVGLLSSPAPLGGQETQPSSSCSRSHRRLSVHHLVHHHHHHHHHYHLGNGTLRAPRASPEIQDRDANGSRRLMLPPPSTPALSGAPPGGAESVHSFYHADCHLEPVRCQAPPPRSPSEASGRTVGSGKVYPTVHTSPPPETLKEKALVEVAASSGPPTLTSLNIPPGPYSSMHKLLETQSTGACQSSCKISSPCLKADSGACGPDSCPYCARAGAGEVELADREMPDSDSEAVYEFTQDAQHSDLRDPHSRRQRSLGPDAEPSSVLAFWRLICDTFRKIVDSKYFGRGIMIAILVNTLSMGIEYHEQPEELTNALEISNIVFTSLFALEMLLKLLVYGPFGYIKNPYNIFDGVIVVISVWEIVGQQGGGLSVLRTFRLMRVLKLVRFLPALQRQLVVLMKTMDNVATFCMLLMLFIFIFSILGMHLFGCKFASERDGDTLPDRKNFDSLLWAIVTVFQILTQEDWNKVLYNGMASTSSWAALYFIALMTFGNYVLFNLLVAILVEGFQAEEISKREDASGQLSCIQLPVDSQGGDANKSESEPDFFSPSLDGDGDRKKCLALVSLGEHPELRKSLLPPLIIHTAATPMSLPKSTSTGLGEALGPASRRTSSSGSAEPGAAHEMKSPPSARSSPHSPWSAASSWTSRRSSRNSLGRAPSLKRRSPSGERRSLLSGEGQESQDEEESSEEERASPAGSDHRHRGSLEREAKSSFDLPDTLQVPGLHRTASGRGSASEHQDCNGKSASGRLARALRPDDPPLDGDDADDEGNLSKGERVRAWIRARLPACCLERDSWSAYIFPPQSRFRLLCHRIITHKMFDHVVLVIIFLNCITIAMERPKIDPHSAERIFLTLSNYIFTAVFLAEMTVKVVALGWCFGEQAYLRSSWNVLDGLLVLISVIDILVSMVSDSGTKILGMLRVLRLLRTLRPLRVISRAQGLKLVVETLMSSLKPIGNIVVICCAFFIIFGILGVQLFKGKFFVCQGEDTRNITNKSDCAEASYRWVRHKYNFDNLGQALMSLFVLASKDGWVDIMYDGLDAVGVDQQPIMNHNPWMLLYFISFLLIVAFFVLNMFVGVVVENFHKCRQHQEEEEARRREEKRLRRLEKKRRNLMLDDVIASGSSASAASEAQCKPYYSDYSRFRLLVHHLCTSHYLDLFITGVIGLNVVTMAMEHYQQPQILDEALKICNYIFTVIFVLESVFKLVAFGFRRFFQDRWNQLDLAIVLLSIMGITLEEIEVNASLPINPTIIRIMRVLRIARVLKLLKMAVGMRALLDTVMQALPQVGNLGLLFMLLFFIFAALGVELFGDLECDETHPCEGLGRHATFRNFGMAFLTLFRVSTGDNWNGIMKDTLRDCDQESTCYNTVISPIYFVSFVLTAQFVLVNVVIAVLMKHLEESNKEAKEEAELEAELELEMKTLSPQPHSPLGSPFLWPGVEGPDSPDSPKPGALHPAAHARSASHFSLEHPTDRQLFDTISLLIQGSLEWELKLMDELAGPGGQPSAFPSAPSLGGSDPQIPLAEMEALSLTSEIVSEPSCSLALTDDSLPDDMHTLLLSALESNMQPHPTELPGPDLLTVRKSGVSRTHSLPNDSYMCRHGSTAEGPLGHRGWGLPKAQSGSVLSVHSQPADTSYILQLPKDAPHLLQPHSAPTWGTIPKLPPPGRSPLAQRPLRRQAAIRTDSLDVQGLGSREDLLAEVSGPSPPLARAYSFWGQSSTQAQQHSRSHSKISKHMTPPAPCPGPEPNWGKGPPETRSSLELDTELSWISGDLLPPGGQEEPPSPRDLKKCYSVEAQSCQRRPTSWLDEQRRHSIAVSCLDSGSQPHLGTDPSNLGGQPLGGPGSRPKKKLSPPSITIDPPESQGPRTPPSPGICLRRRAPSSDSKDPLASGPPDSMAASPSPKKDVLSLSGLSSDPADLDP

SMILES	inhibition at 10 µM [1] [%]	inhibition at 30 µM [1] [%]	IC50 [1] [nM]	IC50 [2] [nM]	IC50 [3] [nM]
CC(C)(C)c1cc(N2CCN(C(=O)c3ccc(F)cc3)CC2)cc(C(C)(C)C)c1 [Compound 4, (4-(3,5-di-tert-butylphenyl)piperazin-1-yl)(4-fluorophenyl)methanone]	92	97	2210	890	790
CC(C)(C)C(=O)Nc1ncccc1C(=O)N1CCN(c2cc(C(C)(C)C)cc(C(C)(C)C)c2)CC1 [Compound 8, N-(3-(4-(3,5-di-tert-butylphenyl)piperazine-1-carbonyl)pyridin-2-yl)pivalamide]	94	95	650	550	710
Cc1cc(C(=O)N2CCN(c3cc(C(C)(C)C)cc(C(C)(C)C)c3)CC2)n(C(C)(C)C)n1 [Compound 10, (1-tert-butyl-3-methyl-1H-pyrazol-5-yl)(4-(3,5-di-tert-butylphenyl)piperazin-1-yl)methanone]	96	104	370	1070	1310
CC(C)(C)C(=O)Nc1cc(C(=O)N2CCN(c3cc(C(C)(C)C)cc(C(C)(C)C)c3)CC2)ccn1 [Compound 22, N-(4-(4-(3,5-di-tert-butylphenyl)piperazine-1-carbonyl)pyridin-2-yl)pivalamide]	99	103	990	50	70
CC(C)(C)c1cc(N2CCN(C(=O)c3nsc(Cl)c3Cl)CC2)cc(C(C)(C)C)c1 [Compound 46, (4-(3,5-di-tert-butylphenyl)piperazin-1-yl)(4,5-dichloroisothiazol-3-yl)methanone]	79	89	–	–	–
CCc1cc(C(=O)N2CCN(c3cc(C(C)(C)C)cc(C(C)(C)C)c3)CC2)sc1C [Compound 52, (4-(3,5-di-tert-butylphenyl)piperazin-1-yl)(4-ethyl-5-methylthiophen-2-yl)methanone]	75	88	–	–	–

More lines, now with the values ahead:

inhibition at 10 µM [1] [%]	inhibition at 30 µM [1] [%]	IC50 [1] [nM]	IC50 [2] [nM]	IC50 [3] [nM]	SMILES
97	96	300	470	660	CC(C)(C)C(=O)Nc1ccncc1C(=O)N1CCN(c2cc(C(C)(C)C)cc(C(C)(C)C)c2)CC1 [Compound 7, N-(3-(4-(3,5-di-tert-butylphenyl)piperazine-1-carbonyl)pyridin-4-yl)pivalamide]
97	97	620	600	680	CC(C)(C)c1cc(N2CCN(C(=O)COc3ccc(F)cc3)CC2)cc(C(C)(C)C)c1 [Compound 13, 1-(4-(3,5-di-tert-butylphenyl)piperazin-1-yl)-2-(4-fluorophenoxy)ethanone]
86	93	1370	1280	1110	Cc1ccc(OCC(=O)N2CCN(c3cc(C(C)(C)C)cc(C(C)(C)C)c3)CC2)c(C)c1 [Compound 14, 1-(4-(3,5-di-tert-butylphenyl)piperazin-1-yl)-2-(2,4-dimethylphenoxy)ethanone]
96	90	1460	680	690	CC(C)(C)c1cc(N2CCN(C(=O)c3ccc(F)c(C(F)(F)F)c3)CC2)cc(C(C)(C)C)c1 [Compound 16, (4-(3,5-di-tert-butylphenyl)piperazin-1-yl)(4-fluoro-3-(trifluoromethyl)phenyl)methanone]
20	26	–	–	–	CC(C)(C)c1cc(N2CCN(C(=O)c3cc(-c4ccccc4)nc(-c4ccccc4)c3)CC2)cc(C(C)(C)C)c1 [Compound 50, (4-(3,5-di-tert-butylphenyl)piperazin-1-yl)(2,6-diphenylpyridin-4-yl)methanone]
98	100	–	–	–	CCOc1ccc(C(=O)N2CCN(c3cc(C(C)(C)C)cc(C(C)(C)C)c3)CC2)o1 [Compound 51, (4-(3,5-di-tert-butylphenyl)piperazin-1-yl)(5-ethoxyfuran-2-yl)methanone]
